Test results: US7470714B2, “GM-95-containing antitumor effect potentiator, combined antitumor preparation and antitumor agent” (Sosei Co., Ltd., priority 2003, dated 2008)

Tests used:
[1] = system: K562 cells; test: Apoptosis induction into K562 cells by combined use, flow cytometry with APO 2.7 antibody; type: cell-based; details: K562 cells cultured 10 days with 2 μM Telomestatin, then 72 hours with the antitumor substance
Experimental: K562 cells (available from ATCC (Rockville, Md.)) were cultured for 10 days in the presence of 2 μM Telomestatin (GM-95 substance). Subsequently, the Telomestatin-treated K562 cells were incubated for 72 hours together with Imanitib, Daunorubicin (DNR), Mitoxantrone (MIT), or Vincristine (VCR). The expression of apoptosis was measured by flow cytometric analysis using an FITC conjugate APO 2.7 monoclonal antibody (which is generated to a mitochondrial membrane protein (7A6 antigen) and is expressed in cells wherein apoptosis takes place). In the figures, the terms “control,” “TMS,” “Imanitib,” “DNR,” “MIT,” and “VCR” represent a control substance, the GM-95 substance (Telomestatin), Imanitib, Daunorubicin, Mitoxantrone, and Vincristine, respectively.

[2] = system: MCF-7 cells; test: Combined use of GM-95 substance with another antitumor substance, survival rate by MTT method; type: cell-based; details: 1 μM or 2 μM GM-95 for 7 or 14 days, then 2 days with antitumor substance
Experimental: Tumor cells were cultured under the conditions described below using the GM-95 substance and another antitumor substance in the same manner as in Example 5. After a certain period of time had passed, the survival rate of the tumor cells was measured.
MCF-7 cells were used as tumor cells. In the following experiments, the tumor cells were cultured in a medium formed by adding 10% FBS to DMEM (SIGMA, D6046) using a CO2 incubator (temperature: 37° C.; humidity: 100%; CO2 concentration: 5%).
MCF-7 cells were cultured under conditions described in the following (D) and (E). After completion of the culture, the survival rate of the tumor cells was measured by the MTT method. • (D): The tumor cells were previously cultured for 7 days together with 1 μM or 2 μM GM-95 substance. Thereafter, each of the aforementioned antitumor substances with a certain concentration was added to the cells in the absence of the GM-95 substance, followed by culture for 2 days. After completion of the culture, the survival rate of the tumor cells was measured. • (E): The tumor cells were previously cultured for 14 days together with 1 μM or 2 μM GM-95 substance. […] After completion of the culture, the survival rate of the tumor cells was measured. […]

[3] = system: several types of cancer cells; test: Action of the GM-95 substance on several types of cancer cells; type: cell-based
Experimental: The inventors have already reported the details thereof (refer to International Publication WO00/24747, for example). The GM-95 substance is the strongest telomerase inhibitor among telomerase inhibitors including synthetic compounds that have been reported to date. The action of the GM-95 substance on several types of cancer cells was analyzed. […] In addition, the aged cells had lost their tumorigenicity.

[4] = Solubility in solvents; type: physicochemical
[5] = system: HT1080 cells; test: Combined use of GM-95 substance with another antitumor substance, survival rate by MTT method; type: cell-based
Experimental: Tumor cells were cultured under the conditions described below using the GM-95 substance and another antitumor substance in the same manner as in Example 3. After a certain period of time had passed, the survival rate of the tumor cells was measured.
HT1080 cells were used as tumor cells. In the following experiments, the tumor cells were cultured in a medium formed by adding 10% FBS to RPMI1640 (SIGMA, R8758) using a CO2 incubator (temperature: 37° C.; humidity: 100%; CO2 concentration: 5%).
HT1080 cells were cultured under conditions described in the following (A) to (C). After completion of the culture, the survival rate of the tumor cells was measured by the MTT method. • (A): 0.5 μM GM-95 substance and each of the aforementioned antitumor substances with a certain concentration were simultaneously added to the HT1080 cells, and the tumor cells were then cultured for 2 days. After completion of the culture, the survival rate of the tumor cells was measured. • (B): The tumor cells were previously cultured for 7 days together with 0.5 μM or 1 μM GM-95 substance. […] After completion of the culture, the survival rate of the tumor cells was measured. • (C): The tumor cells were previously cultured for 7 or 14 days together with 0.5 μM or 1 μM GM-95 substance. […] After completion of the culture, the survival rate of the tumor cells was measured. […]

COc1cccc2c1C(=O)c1c(O)c3c(c(O)c1C2=O)C[C@@](O)(C(C)=O)C[C@@H]3O[C@H]1C[C@H](N)[C@H](O)[C@H](C)O1 [Daunorubicin]
Effect of inducing apoptosis by combined use of Telomestatin with another antitumor substance [1]: act synergistically

Cc1oc2nc1-c1nc(co1)-c1nc(co1)-c1nc(co1)-c1nc(co1)-c1nc(co1)C1=NC(CS1)c1nc-2c(C)o1 (stereo not drawn) [GM-95]
Antitumor action by combined use of the GM-95 substance with another antitumor substance (survival rate) [2]: enhanced
Induction of aging of cells attended with telomere shortening [3]: induces the aging of cells
Effect of inducing apoptosis by combined use of Telomestatin with another antitumor substance [1]: act synergistically
Solubility in acetone ([4]; acetone): insoluble
Solubility in a mixture consisting of chloroform and methanol (1:1) ([4]; chloroform and methanol (1:1)): soluble
Solubility in water ([4]; water): insoluble
Antitumor action by combined use of the GM-95 substance with another antitumor substance (survival rate) ([5]; HT1080, 0.5 μM or 1 μM GM-95, simultaneous or 7 or 14 days pre-treatment, then 2 days with antitumor substance): enhanced
Number of surviving cells ([5]; HT1080 cultured for 14 days in the presence of 1 μM GM-95 substance): very small

Cc1ccc(NC(=O)c2ccc(CN3CCN(C)CC3)cc2)cc1Nc1nccc(-c2cccnc2)n1 [Imanitib]
Effect of inducing apoptosis by combined use of Telomestatin with another antitumor substance [1]: act synergistically

O=C1c2c(O)ccc(O)c2C(=O)c2c(NCCNCCO)ccc(NCCNCCO)c21 [Mitoxantrone]
Effect of inducing apoptosis by combined use of Telomestatin with another antitumor substance [1]: act synergistically

CC[C@]1(O)C[C@H]2CN(CCc3c([nH]c4ccccc34)[C@@](C(=O)OC)(c3cc4c(cc3OC)N(C=O)[C@H]3[C@@](O)(C(=O)OC)[C@H](OC(C)=O)[C@]5(CC)C=CCN6CC[C@]43[C@@H]65)C2)C1 [Vincristine]
Effect of inducing apoptosis by combined use of Telomestatin with another antitumor substance [1]: act synergistically
